Reference: patent EP2338492A1, “Methods and compositions for the treatment of alzheimer” (Universidad del Pais Vasco, priority 2009, dated 2011)
Like-named read-outs stand apart in the source and are kept apart here.

Experiments:
[1] = test system: NMDA receptor; assay type: cell-based, Sprague-Dawley rat
[2] = test system: AMPA receptors; assay: Whole-cell patch-clamp recording of Aβ-induced currents with Mg2+, no glycine, with or without cyclothiazide; assay type: cell-based, Sprague-Dawley rat; details: Aβ 1 µM + CTZ 100 µM; CNQX 30 µM; n=6
Source text: (§1) Primary neuron cultures were obtained from the cortical lobes of E18 Sprague-Dawley rat embryos according to previously described procedures (Gottlieb M. et al. 2006. Neurobiol. Dis. 23 374-386.) Cells were resuspended in B27 Neurobasal medium plus 10% FBS (Sigma; St Louis, MO, USA) and then seeded onto poly-1-ornithine-coated glass coverslips at 1x10^5 cells per coverslip (12 mm in diameter) and 48-well plates at 1.5 x 10^5 per well. One day later, the medium was replaced by serum-free-, B27-supplemented Neurobasal medium. The cultures were essentially free of astrocytes and microglia; they were maintained at 37°C and 5% CO2. Cultures were used 8-10 days after plating.
Whole-cell recordings were performed at room temperature using the EPC-7 patch-clamp amplifier (HEKA Elektronik, Lambrecht, Germany). Currents were recorded at a holding membrane potential of -70 mV. Extracellular bath solution with a pH of 7.3 contained the following (in mM): 140 NaCl, 5 KCl, 2.5 CaCl2, 1 MgCl2, 10 HEPES and 10 mM glucose. Patch-clamp pipettes (3-5 MΩ) were filled with internal solution at a pH of 7.3 containing the following (in mM): 140 K-gluconate, 1 CaCl2, 2 MgCl2, 10 HEPES, 10 EGTA, 2 Mg-ATP, 0.2 Na-GTP.
We then measured the effects of antagonists of NMDA or AMPA receptor on [Ca^2+]¡ in neurons exposed to Aβ plus CTZ (5 µM and 100 µM, respectively; Fig 2B).

[3] = test system: cultured cortical neurons; assay: Ca2+ imaging in the cytosol (fura-2 AM); assay type: cell-based, Sprague-Dawley rat; details: for effect on Aβ-induced increase in [Ca2+]i: Aβ 5 µM, coapplication, NMDA antagonists n=70, voltage-gated Ca2+ channel inhibitors n=66
Source text: as §1
[Ca^2+]¡ was determined according to the method described previously (G. Grynkiewicz, et al. 1985. J. Biol. Chem. 260:3440-3450). Neurons were loaded with fura-2 AM (5 µM; Molecular Probes, Invitrogen, Barcelona, Spain) in culture medium for 30 min at 37°C. Cells were washed in HBSS containing 20 mM HEPES, pH 7.4, 10 mM glucose, and 2 mM CaCl2 (incubation buffer) for 10 min at room temperature. Experiments were performed in a coverslip chamber continuously perfused with incubation buffer at 4 ml/min. The perfusion chamber was mounted on the stage of a inverted epifluorescence microscope (Zeiss Axiovert 35; Oberkochen, Germany) equipped with a 150 W xenon lamp Polychrome IV (T.I.L.L. Photonics, Martinsried, Germany) and a Plan Neofluar 40 x oil immersion objective (Zeiss). Cells were visualized with a high-resolution digital black/white CCD camera (ORCA C4742-80-12 AG; Hamamatsu Photonics Iberica). […] At the end of the assay, in situ calibration was performed with the successive addition of […] and 2 M Tris/50 mM EGTA, pH 8.5. Data were analyzed with Excel (Microsoft, Seattle, WA, USA) and Prism (GraphPad Software, San Diego, CA, USA) software.

[4] = test system: Cortical neurons; assay: Cell viability and toxicity assay (LDH release); assay type: cell-based, Sprague-Dawley rat
Source text: as §1
Antagonists and inhibitors were added to the cultures 30 min before the Aβ. Twenty four hours after drug application, cellular damage was estimated by measuring the level of lactate dehydrogenase released (LDH; Cytotox 96®, Promega, Madison, WI) from damaged cells into the culture media. Data were normalized to the activity of LDH released from vehicle-treated cells (100%) and calculated as a percentage of the control. Results were expressed as the means ± SEM of at least three independent experiments performed in triplicates.

[5] = test system: Cortical neurons; assay: Measurement of intracellular reactive oxygen species (CM-H2DCFDA); assay type: cell-based, Sprague-Dawley rat; details: 2 hours
Source text: as §1
Neurons were exposed to Aβ oligomers alone or with GluR antagonists as described. Cells were loaded with CM-H2DCFDA at 30 µM to assay the ROS levels. Calcein-AM (1 µM; Molecular Probes, Invitrogen, Barcelona, Spain) was used to quantify the number of cells within the reading field. Fluorescence was measured using a Synergy-HT fluorimeter (Bio-Tek Instruments Incl, Beverly, MA, USA; excitation at 485 nm, emission at 527 nm). All experiments (n≥3) were performed at least in quadruplicate and plotted as means ± SEM.

[6] = test system: Cortical neurons; assay: Analysis of mitochondrial membrane potential (JC-1); assay type: cell-based, Sprague-Dawley rat; details: Aβ 5 µM, 2 hours, in conjunction with GluR antagonist
Source text: as §1
Briefly, after drug treatment, cells were loaded with 3 µM JC-1 for 15 min at 37°C and were washed with HBSS without phenol red by two times to eliminate the excess of dye. In the cytosol the monomeric form of this dye fluoresces green (excitation at 485 nm, emission at 527 nm), whereas within the mitochondrial matrix highly concentrated JC-1 forms aggregates that fluoresce red (excitation at 485 nm, emission at 590 nm). Both JC-1 monomers and aggregates were detectable using a Synergy-HT fluorimeter (Bio-Tek Instruments Incl, Beverly, MA, USA) and the changes in mitochondrial potential were calculated as the red/green ratio in each condition. All experiments (n≥3) were performed at least in triplicate and plotted as meant SEM.

[7] = test system: neurons from CA1 in organotypic slices; assay: Measurement of Ca2+ in organotypic slices (fluo-4); assay type: cell-based; details: for [Ca2+]i in CA1 neurons of organotypic slices: kainate 1 mM (positive control)
Source text: (§2) Brain was removed and two hemispheres were separated in HBSS. Thalamus and midbrain was removed and each hemisphere sliced with a tissue chopper (McIlwan Tissue Chopper, Campden Instruments Ltd, Lafayette, IN, USA) in order to obtain coronal slices of 400 µm of thickness. Entorhinal cortex, in connection with hippocampus, were isolated under a dissection microscope, 2 slices plated on each Millicell CM culture inserts (Millipore Ibérica, Madrid, Spain) and maintained in Neurobasal medium supplemented with 0.5% B27, 25% horse serum, 25% HBSS and […] gentamycin at 37°C. Experiments were performed at 7-10 days in vitro.
Ca^2+ levels in hippocampus were monitored by fluorescence microscopy using the Ca^2+ indicator fluo-4 (Molecular Probes, Invitrogen, Barcelona, Spain). Slices were incubated with fluo-4-AM (5 µM and 0.01 % of pluronic acid) for 45 min at 37 °C. Experiments were performed in a chamber continuously perfused with incubation buffer. Drugs were perfused by a micromanifold with a quartz/polyimide tube of 200 µm ID, attached to a micromanipulator in order to perfuse the drugs directly to the cells. The perfusion chamber was mounted on the stage of a Leica DMLFSA up-right microscope equipped with a 150 W xenon lamp Polychrome V (T.I.L.L. Photonics, Martinsried, Germany) and a HCX Apo 40 x water immersion objective (Leica). Cells were visualized with a CCD camera (EM CCD 9100; Hamamatsu Photonics Iberica, Barcelona, Spain).

[8] = test system: entorhinal cortex-hippocampus organotypic cultures; assay: Cell death in organotypic cultures by propidium iodide uptake; assay type: cell-based; details: Aβ oligomers 100 nM, 4 days, co-incubation with MK801 10 µM or CNQX 30 µM
Source text: as §2
Antagonists were added to cultures 30 min before the Aβ. Cell death in organotypic cultures was evaluated by cellular uptake of propidium iodide (PI). Slices were stained by adding 10 µM PI into the culture for 2 h at 37°C and washed with PBS by two times for 10 min. Slices were fixed with 4% PFA in PBS for 40 min at room temperature. Afterwards, the slices were excited with 510―560 nm light and the emitted fluorescence acquired at 610 nm using a rhodamine filter on an inverted fluorescence microscope (Cell Observer Z1, Zeiss). PI fluorescence images were captured with a Plan NeoFluar 2.5 x objective (Zeiss), using an EM CCD camera (Hamamatsu, C9100-13), controlled by Axio Vision program (Zeiss). Images were analyzed with the ImageJ analysis program (NIH, MD, USA) and neuronal cell death was expressed as the percentage of the mean gray value of each treatment vs. control.

[9] = test system: neurons; assay: Measurement of mitochondrial Ca2+ (Rhod-2 AM); assay type: cell-based, Sprague-Dawley rat; details: for effect on Aβ-induced [Ca2+]mit rise: Aβ 5 µM together with NMDA receptor antagonist
Source text: as §1
Rhod-2 AM (Molecular Probes, Invitrogen, Barcelona, Spain) was used to measure mitochondrial Ca^2+ according to the previous procedure with modifications (G. Hajnóczky, L.D. et al. 1995. Cell 82 415-424) Rhod2-AM has a net positive charge, which facilitates its sequestration into mitochondria due to membrane potential-driven uptake. Cells were loaded with 2 µM rhod2-AM for 6 hours. The residual cytosolic fraction of the dye was eliminated when the cells were kept in culture for an additional 18h after loading, whereas the mitochondrial dye fluorescence was maintained. Fluorescence images of rhod-2 were acquired using 550 nm excitation and 590 nm emission. The fluorescence of rhod-2 was not calibrated in terms of [Ca^2+]mit since it is not a ratiometric dye.

[10] = Aβ 5 µM, in conjunction with GluR antagonist
[11] = Aβ 5 µM, 24 h, AP5 100 µM, MK801 50 µM, memantine 50 µM, CNQX 30 µM, ZVAD-F 50 µM, DEVD 100 µM, DPQ 30 µM, added 30 min before Aβ

Compound: 6-Cyano-7-nitroquinoxaline-2,3-dione [CNQX]
- Aβ-produced inward current, Aβ + CNQX vs 100 % Aβ alone [1]: 98.3 ± 6.8%
- effect on current activated by Aβ with CTZ [2]: blocked
- [Ca2+]i increase, % of control [3]: 50 ± 4 % of control
- effect on Aβ toxicity (Aβ-induced cell death) [4]: greatly attenuated
- ROS levels with respect to control (100%, non-treated cells) [5, 10]: 106 ± 6.3%
- mitochondrial potential with respect to control (100%, non-treated cells) [6]: 86 ± 3%
- effect on Aβ-induced [Ca2+]i response in organotypic slices ([7]; Aβ 20 µM in the pipette, MK801 50 µM (n=9), CNQX 30 µM (n=43), both (n=50)): greatly reduced
- PI uptake, fold as compared to control slices treated with antagonist alone ([8]; entorhinal cortex): 0.73 ± .01 fold
- PI uptake, fold as compared to control slices treated with antagonist alone ([8]; hippocampus): 1.3 ± 0.4 fold

Compound: N[C@H](CCCP(=O)(O)O)C(=O)O [AP5, D-(-)-2-Amino-5-phosphonopentanoic acid]
- effect on Aβ oligomer-induced inward current [1]: reduced the peak of the currents
- [Ca2+]i increase, % of control ([3]; Aβ 5 µM plus CTZ 100 µM, CNQX 30 µM (n=17), AP5 100 µM (n=17), both (n=18)): 45 ± 2 % of control
- effect on Aβ-induced increase in [Ca2+]i [3]: nearly abolished
- effect on Aβ toxicity (Aβ-induced cell death) [4, 11]: greatly attenuated
- effect on Aβ-induced [Ca2+]mit rise [9]: reduced
- ROS levels with respect to control (100%, non-treated cells) [5, 10]: 102 ± 11%
- mitochondrial potential with respect to control (100%, non-treated cells) [6]: 90 ± 2%

Compound: O=C1NCCc2c(OCCCCN3CCCCC3)cccc21 [DPQ]
- effect on Aβ toxicity (Aβ-induced cell death) [4, 11]: reduced

Compound: N#CC(C#N)=NNc1ccc(OC(F)(F)F)cc1 [FCCP]
- rhod-2 fluorescence (mitochondrial Ca2+) ([9]; FCCP 25 µM, internal control): rapid and transitory reduction of rhod-2 fluorescence

Compound: C=C(C)[C@H]1CN[C@H](C(=O)O)[C@H]1CC(=O)O [Kainate]
- [Ca2+]i in CA1 neurons of organotypic slices ([7]; Aβ 20 µM in the pipette): increases

Compound: C[C@]12N[C@H](Cc3ccccc31)c1ccccc12 [MK801]
- effect on Aβ-induced increase in [Ca2+]i [3]: nearly abolished
- effect on Aβ toxicity (Aβ-induced cell death) [4]: greatly attenuated
- effect on Aβ-induced [Ca2+]mit rise [9]: reduced
- ROS levels with respect to control (100%, non-treated cells) [5, 10]: 104 ± 3.4%
- mitochondrial potential with respect to control (100%, non-treated cells) [6]: 85 ± 3%
- effect on Aβ-induced [Ca2+]i response in organotypic slices [7]: greatly reduced
- PI uptake, fold as compared to control slices treated with antagonist alone ([8]; entorhinal cortex): 1.2 ± 0.4 fold
- PI uptake, fold as compared to control slices treated with antagonist alone ([8]; hippocampus): 0.9 ± 0.2 fold

Compound: Aβ oligomers: soluble Aβ1-42 oligomers prepared from Aβ1-42 (ABX) in Hams F-12 at 4°C for 24 h
- [Ca2+]mit levels with respect to the control assay (incubation buffer) ([9]; Aβ 5 µM): increased
- ROS levels with respect to control (100%, non-treated cells) ([5]; Aβ 5 µM alone): 124 ± 7.8%
- [Ca2+]i in CA1 neurons of organotypic slices ([7]; Aβ 20 µM in the pipette): increased
